# In US20060240463A1, “Markers associated with the therapeutic efficacy of glatiramer acetate” (Rappaport Family Institute for Research in the Medical …, priority 2005, published 2006):
# Assays:
# [1] = test system: MHC class II molecules on murine and human antigen-presenting cells; conditions: cited from earlier work
# [2] = test system: skin graft, thyroid grafts; conditions: across minor and major histocompatibility barriers; cited from earlier work
# RR-MS = conditions: in vivo; cited from earlier work
# RR-MS patients [3] = assay: European/Canadian MRI trial, GA-treated PGx cohort: response by SNP genotype ("combined" response definition); type: in vivo, human
# Text: (§1) Two clinical trials, the European/Canadian trial and U.S. pivotal trial, were used to identify associations between GA responsiveness and SNPs in RR-MS patients. Caucasian patients, that had participated in one of two previously completed randomized, double blind, placebo-controlled, multi-centric clinical trials, were solicited to partake in the present study. In both clinical trials, patients were required to have a diagnosis of definite MS (Poser C M, et al. Ann Neurol., 13(3):227-31 (1983) and a relapsing-remitting course (Lublin F D and Reingold S C, Neurology 46(4):907-11 (1996). Ultimately, 73 and 101 DNA samples of Caucasian patients from the U.S. pivotal and European/Canadian MRI trials, respectively, were analyzed. GA dosage was consistent for both trials (i.e. daily 20-mg subcutaneous injection). Table I compares multiple variables between the general cohort study and the PGx cohort study for the European/Canadian trial and the U.S. pivotal trial.
# (§2) Subjects were selected from two previously completed randomized, double blind, placebo-controlled, multi-centric clinical trials. In both clinical trials, patients were required to have a diagnosis of definite MS (Poser C M, et al. New diagnostic criteria for multiple sclerosis: guidelines for research protocols. Ann Neurol., (1983);13(3):227-31) and a relapsing-remitting course (Lublin F D, Reingold S C. Defining the clinical course of multiple sclerosis: results of an international survey. National Multiple Sclerosis Society (USA) Advisory Committee on Clinical Trials of New Agents in Multiple Sclerosis. Neurology, (1996);46(4):907-11) 85 (33.9%) out of 251 patients from the U.S. pivotal trial (Johnson K P, et al. Copolymer 1 reduces relapse rate and improves disability in relapsing-remitting multiple sclerosis: results of a phase 111 multicenter, double-blind placebo-controlled trial. The Copolymer 1 Multiple Sclerosis Study Group. Neurology, (1995);45(7):1268-76; Johnson K P, et al. Extended use of glatiramer acetate (COPAXONE) is well tolerated and maintains its clinical effect on multiple sclerosis relapse rate and degree of disability. Copolymer 1 Multiple Sclerosis Study Group. Neurology, (1998);50(3):701-8), and 108 (45.2%) out of 239 patients from the European/Canadian MRI trial (Comi G, Filippi M, Wolinsky J S. European/Canadian multicenter, double-blind, randomized, placebo-controlled study of the effects of glatiramer acetate on magnetic resonance imaging—measured disease activity and burden in patients with relapsing multiple sclerosis. European/Canadian glatiramer acetate Study Group. Ann Neurol., (2001);49(3):290-7) (including patients from Holland, Italy, Belgium, UK, Canada) consented to participate in this study. The same dosage of GA (i.e. daily 20-mg subcutaneous injection) was used in both trials. Although in the original trials patients were equally assigned to either GA- or placebo-treatment, the ratios in the current PGx study were 37:36 and 4952, for the U.S. pivotal and the European/Canadian MRI trials, respectively. Table I indicates various variables between the General Cohort study and the PGx Cohort study for both the European/Canadian trial and the U.S. pivotal trial.
# (§3) The primary endpoint in the European/Canadian MRI trial was the accumulated number of TI-enhancing lesions during 9 months, and an additional inclusion criterion was used calling for the presence of at least one TI-enhancing lesion on MRI screening. The primary end-point for the U.S. pivotal trial was the annualized relapse-rate after two years of treatment.
# (§4) The procedure used stringent definitions for response to GA therapy. […] For validation purposes response was also treated as a continuous variable where number of new T1-enhancing lesions within the third trimester was analyzed as the […] variable. […]
# [4] = test system: murine models resembling inflammatory bowel disease; conditions: severe ulceration and inflammation; cited from earlier work
# dendritic cells = conditions: through modulation of dendritic cells; cited from earlier work
# RR-MS patients [5] = assay: European/Canadian MRI trial, GA-treated PGx cohort: response by SNP genotype ("T1 lesion-free" response definition); type: in vivo, human
# Text: as §1, §2, §3, §4
# [6] = CD80_rs527004, GEN = 0, GA(N = 41)
# [7] = CD80_rs527004, GEN = 1, GA(N = 41)
# [8] = CD86_rs1129055, GEN = 0, GA(N-35)
# [9] = CD86_rs1129055, GEN = 1, GA(N-35)
# [10] = CD86_rs1129055, GEN = 2, GA(N-35)
# [11] = CD86_rs2001791, GEN = 0, GA(N = 48)
# [12] = CD86_rs2001791, GEN = 1, GA(N = 48)
# [13] = CD86_rs2001791, GEN = 2, GA(N = 48)
# [14] = CD95_rs9827641, GEN = 0, GA(N-47)
# [15] = CD95_rs9827641, GEN = 1, GA(N-47)
# [16] = CTSS_rs1415148, GEN = 0, GA(N = 47)
# [17] = CTSS_rs1415148, GEN = 1, GA(N = 47)
# [18] = CTSS_rs1415148, GEN = 2, GA(N = 47)
# [19] = CTSS_rs2275235, GEN = 0, GA(N = 43)
# [20] = CTSS_rs2275235, GEN = 1, GA(N = 43)
# [21] = CTSS_rs2275235, GEN = 2, GA(N = 43)
# [22] = MBP_rs470929, GEN = 0, GA(N-32)
# [23] = MBP_rs470929, GEN = 1, GA(N-32)
# [24] = MBP_rs470929, GEN = 2, GA(N-32)
# [25] = TCRB_rs71878, GEN = 0, GA(N = 43)
# [26] = TCRB_rs71878, GEN = 1, GA(N = 43)
# [27] = TCRB_rs71878, GEN = 2, GA(N = 43)
substance,measurement,setting,value
glatiramer acetate [GA],binding to MHC class II molecules,[1],"very rapid, high, and efficient binding"
same,amelioration of graft rejection,[2],prolongation of skin graft survival and inhibition of functional deterioration of thyroid grafts
same,relapse rate and CNS activity,RR-MS,effectiveness in reducing relapse rate and CNS activity
same,percentage of responders out of carriers of genotype,RR-MS patients [3]; [6],(35.29%)
same,responders/carriers of genotype,RR-MS patients [3]; [6],12/34
same,percentage of responders out of carriers of genotype,RR-MS patients [3]; [7],85.71%
same,responders/carriers of genotype,RR-MS patients [3]; [7],6/7
same,responders/carriers of genotype,"RR-MS patients [3]; CD80_rs527004, GEN = 2, GA(N = 41)",0/0
same,percentage of responders out of carriers of genotype,RR-MS patients [3]; [8],(16.67%)
same,responders/carriers of genotype,RR-MS patients [3]; [8],3/18
same,percentage of responders out of carriers of genotype,RR-MS patients [3]; [9],(60%)
same,responders/carriers of genotype,RR-MS patients [3]; [9],9/15
same,percentage of responders out of carriers of genotype,RR-MS patients [3]; [10],(50%)
same,responders/carriers of genotype,RR-MS patients [3]; [10],1/2
same,percentage of responders out of carriers of genotype,RR-MS patients [3]; [11],(28.21%)
same,responders/carriers of genotype,RR-MS patients [3]; [11],11/39
same,percentage of responders out of carriers of genotype,RR-MS patients [3]; [12],62.5%)
same,responders/carriers of genotype,RR-MS patients [3]; [12],5/8
same,percentage of responders out of carriers of genotype,RR-MS patients [3]; [13],(100%)
same,responders/carriers of genotype,RR-MS patients [3]; [13],1/1
same,percentage of responders out of carriers of genotype,RR-MS patients [3]; [14],(22.53%)
same,responders/carriers of genotype,RR-MS patients [3]; [14],5/24
same,percentage of responders out of carriers of genotype,RR-MS patients [3]; [15],(31.25%)
same,responders/carriers of genotype,RR-MS patients [3]; [15],5/16
same,percentage of responders out of carriers of genotype,"RR-MS patients [3]; CD95_rs9827641, GEN = 2, GA(N-47)",((71.43%)^
same,percentage of responders out of carriers of genotype,RR-MS patients [3]; [16],(15%)
same,responders/carriers of genotype,RR-MS patients [3]; [16],3/20
same,percentage of responders out of carriers of genotype,RR-MS patients [3]; [17],(42.86%)
same,responders/carriers of genotype,RR-MS patients [3]; [17],9/21
same,percentage of responders out of carriers of genotype,RR-MS patients [3]; [18],(83.33%)
same,responders/carriers of genotype,RR-MS patients [3]; [18],5/6
same,percentage of responders out of carriers of genotype,RR-MS patients [3]; [19],(19.35%)
same,responders/carriers of genotype,RR-MS patients [3]; [19],6/31
same,percentage of responders out of carriers of genotype,RR-MS patients [3]; [20],(66.67%)
same,responders/carriers of genotype,RR-MS patients [3]; [20],4/6
same,percentage of responders out of carriers of genotype,RR-MS patients [3]; [21],(83.33%)
same,responders/carriers of genotype,RR-MS patients [3]; [21],5/6
same,percentage of responders out of carriers of genotype,RR-MS patients [3]; [22],(18.18%)
same,responders/carriers of genotype,RR-MS patients [3]; [22],2/11
same,percentage of responders out of carriers of genotype,RR-MS patients [3]; [23],(43.75%)
same,responders/carriers of genotype,RR-MS patients [3]; [23],7/16
same,percentage of responders out of carriers of genotype,RR-MS patients [3]; [24],(100%)
same,responders/carriers of genotype,RR-MS patients [3]; [24],5/5
same,macroscopic colonic damage,[4],reduce macroscopic colonic damage
same,Th2 cell development and IL-10 production,dendritic cells,promotes T helper 2 (Th2) cell development and increased IL-10 production
same,percentage of responders out of carriers of genotype,RR-MS patients [5]; [25],62.07%
same,responders/carriers of genotype,RR-MS patients [5]; [25],18/29
same,percentage of responders out of carriers of genotype,RR-MS patients [5]; [26],(90%)
same,responders/carriers of genotype,RR-MS patients [5]; [26],9/10
same,percentage of responders out of carriers of genotype,RR-MS patients [5]; [27],(100%)
same,responders/carriers of genotype,RR-MS patients [5]; [27],4/4
